Assay results reported in patent publication US20220125777A1, “COMBINATION OF A CDK INHIBITOR AND A PIM INHIBITOR” (Pfizer Inc., priority 2019, published 2022).

Test system: HR+/HER2− advanced or metastatic breast cancer
Test: Study 2: progression-free survival by PIM2 mRNA expression, palbociclib plus fulvestrant vs placebo plus fulvestrant
Assay type: in vivo, human
Settings: Study 2, control arm, fulvestrant alone (placebo plus fulvestrant 500 mg IM); FIG. 2A
Procedure: Study 2 was conducted in HR+/HER2− advanced or metastatic breast cancer (MBC) patients who had progressed on prior endocrine therapy. Pre- and peri-menopausal subjects were given an LHRH agonist. Subjects were treated with palbociclib (125 mg QD, 3/1 schedule) plus fulvestrant (500 mg IM on Days 1 and 15 of Cycle 1, and then Day 1 of each subsequent 28-day cycle) or placebo (3/1 schedule QD) plus fulvestrant on the same schedule. In both studies, the primary outcome was PFS as assessed by the investigator.
Tumor samples were analyzed to identify potential predictive biomarkers for palbociclib plus letrozole treatment. Using the EdgeSeq Oncology BM Panel, mRNA expression was assessed for 2534 cancer-related genes. […] Targeted capture sequencing was used to quantitate RNA expression levels of gene targets. […]
The primary outcome was PFS as assessed by the investigator.
Tumor samples were analyzed by EdgeSeq Oncology BM Panel (HTG Molecular Diagnostics; https://www.htgmolecular.com/assays/obp) for mRNA expression assessment of 2534 cancer-related genes. […]
The EdgeSeq system used was validated and used targeted capture sequencing to quantitate RNA expression levels of gene targets in formalin-fixed paraffin-embedded tumor tissues. […]

C[C@]12CC[C@@H]3c4ccc(O)cc4C[C@@H](CCCCCCCCC[S+]([O-])CCCC(F)(F)C(F)(F)F)[C@H]3[C@@H]1CC[C@@H]2O (stereo partly shown) [fulvestrant]
PFS of subjects having low PIM2 expression versus higher PIM2 expression: shorter PFS
